For this assay, the system named is AYE. Kind of assay: MIC, microdilution broth method. It counts as cell-based, Acinetobacter baumannii.

≈ marks a conversion by molar mass, not a printed value.

These results are taken from US11746116B2, “Antibiotic resistance breakers” (KING'S COLLEGE LONDON, priority 2017, dated 2023).

One may read the MIC as the least concentration at which growth counts as inhibited. Take `Cc1cc(C)nc(N[C@@H]2CCN(c3c(F)cc4c(=O)c(C(=O)O)cn5c4c3OC[C@@H]5C)C2)n1` [KSN-BL7, (S)-10-((R)-3-((4,6-dimethylpyrimidin-2-yl)amino)pyrrolidin-1-yl)-9-fluoro-3-methyl-7-oxo-2,3-dihydro-7H-[1,4]oxazino[2,3,4-ij]quinoline-6-carboxylic acid]: the MIC (Acinetobacter baumannii) is 8 µg/mL (≈ 17.6 µM). Also, the “MIC, AYE” value (ESKAPE panel, Gram-negative, in µg/mL) worked out at 8.
